A word on the inhibition: it is the percentage by which the read-out fell short of the control. For orientation: IC50 means the concentration at which inhibition is half-maximal.

One series deals with Aβ. Further details: method as in Panek et al. To be noted: ref Panek et al.; cited from earlier work.
For series [1], the target named is T1, human amylin (hIAPP) (Homo sapiens, UniProt P10997).
T1 construct: purchased Bachem USA
T1 sequence (P10997 34-70 limits assumed): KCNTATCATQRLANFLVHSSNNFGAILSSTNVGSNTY
Put plainly: Kinetic analysis of amylin aggregation (ThT, two-step autocatalytic aggregation model). The format is biochemical. The following applies: mean ± S.D.; for t 0 (time point when the aggregation starts): 10% of highest ThT fluorescence; for t 1/2 (aggregation halftime): 50% of highest ThT fluorescence; for t 1 (aggregation endpoint): 90% of highest ThT fluorescence; for k / k e (elongation constant) / k n (nucleation constant) / ρ (ratio of kn to k): ThT data, autocatalytic aggregation model. As to the method:
Kinetic analysis was performed according to the model of autocatalytic aggregation. According to Sabaté et al., aggregation is a two-step process, comprising nucleation (described by the k n constant) and fibrillation phases (represented by the k e constant). Two constants (k n and k e) are calculated using the eq : 5 f=ρ{e^[(1+ρ)kt]−1}/{1+ρe^[(1+ρ)kt]} where k = k e a (where a represents the initial concentration of the aggregating peptide), f stands for a fraction of the fibrillar form in the system, and ρ denotes the dimensionless ratio of k n to k. The parameters k and ρ were calculated first, then k n and k e.
Data were normalized as a fraction of the highest fluorescence from the three trials and fitted into the model of autocatalytic aggregation. The same procedure was repeated for the remaining trials. The second calculation aimed to find the time parameters of the aggregation process: t 0 (time point when the aggregation starts), t 1/2 (aggregation halftime), and t 1 (aggregation endpoint). t 0, t 1/2, and t 1 were calculated as 10%, 50%, and 90% of the highest fluorescence measurements from the three trials, respectively. All calculations were performed using GraphPad Prism 9.5.1, Statistica 13.3.721.1, and Microsoft Excel 2304.

Series [2] concerns the target T1, human amylin (hIAPP). The series is described as follows: Thioflavin T (ThT) fluorescence assay of amylin aggregation. It counts as biochemical. The following applies: for inhibition at 10 µM: read-out: ThT inhibition % (mean ± SEM), compound 10 μM, amylin 15 μM, 36 h incubation, 3 trials. As to the method:
(§1) A stock solution of amylin (1 mM) (purchased from Bachem USA), peptide sequence: […] amide (with disulfide bond between Cys2 and Cys7), was prepared in 100% hexafluoroisopropyl alcohol (HFIP) (purchased from Sigma-Aldrich) and stored at −20 °C. , Aliquots of amylin peptide were filtered through a 0.22 μm filter from the stock solution and freeze-dried. For kinetic experiments, 15 μM of amylin was prepared in 50 mM Tris-HCl buffer (pH 7.4), as investigated in previous studies by Chaari et al., , Samples of amylin were prepared in the presence or absence of inhibitors. Each compound was dissolved in DMSO and further diluted with the buffer used to solubilize the amylin. The final mixture contained 15 μM amylin, 10 μM of the test compound, 2% DMSO or 15 μM amylin, and 2% DMSO without the compound (negative control). Also 15 μM amylin, 10 μM of oleuropein aglycone and 2% DMSO was used as a positive control. The prepared solutions were incubated under physiological conditions (pH 7.4 and 37 °C) for amylin aggregation. Samples were incubated for 36 h to test for amylin aggregation, and measurements were conducted at different time points.
Amylin aggregation was monitored by characteristic changes in Thioflavin T (ThT) fluorescence intensity. A ThT stock solution (15 μM) was prepared in deionized water at pH 7.4. The amylin samples were mixed with the ThT solution and allowed to incubate. ThT fluorescence was measured using the PerkinElmer model LS 55 fluorescence spectrophotometer (PerkinElmer, USA), with an excitation wavelength of 440 nm and an emission wavelength of 480 nm. ,− The emission and excitation slits were set to 5 nm, and a 1 cm cuvette was used for all experiments. Nonspecific background fluorescence was subtracted from the samples using appropriate blanks in the absence of proteins. Each experiment was performed in triplicate.

Series [3] concerns the target T1, human amylin (hIAPP). The series is described as follows: Dynamic light scattering (DLS) assay of amylin aggregation. It counts as biochemical. The following applies: compound 10 μM, amylin 15 μM, 36 h incubation, 3 trials; read-out: DLS inhibition % (mean ± SEM). As to the method: as §1
DLS (Zetasizer, Malvern) was used at a wavelength of 633 nm to measure the average diffusion coefficient distribution of amylin particles and the aggregation percentage. Samples were diluted 10-fold, and 50 μL was placed into a 96-well plate. The total light scattering intensity at a 90° angle was collected using a 10 s averaging acquisition time. Particle translational diffusion coefficients were calculated from autocorrelated light intensity data (usually 30–40 points) and converted to the hydrodynamic radius (R h) using the Stokes–Einstein equation. A distribution plot of intensity versus R h was calculated using the Sedfit 9.3 analysis software, and intensity-weighted mean R h values were obtained from each peak.

The target in series [4] is T1, human amylin (hIAPP). Put plainly: Thioflavin T (ThT) fluorescence assay of amylin aggregation. It counts as biochemical. The following applies: read-out: IC50 of amylin aggregation inhibition.

“And” between values parts separate entries of the source, which are not always exact repeats. Equal entries are not always repeated.

On to `CC(C)(C)c1cccc(CNCC(O)CN2CCN(C(c3ccccc3)c3ccccc3)CC2)c1` (centres unmarked) [Compound 6], for which the “inhibition of Aβ aggregation in the ThT assay” value with Aβ is recorded as 77.2%. At human amylin (hIAPP) [1], the “t 0 (time point when the aggregation starts)” value was 8.36 ± 0.56 h, the “t 1/2 (aggregation halftime)” value is 16.61 ± 0.27 h, the “t 1 (aggregation endpoint)” value was found to be 25.27 ± 0.39 h and the k is listed as 0.2488 ± 0.0157 h^–1. On human amylin (hIAPP) [1], the “k e (elongation constant)” value is 16585 M^–1h^–1 and 16585 ± 1051 M^–1h^–1; the “k n (nucleation constant)” value was determined as 0.0039 ± 0.0009 h^–1; the “ρ (ratio of kn to k)” value is given as 0.0159±0.0044. The inhibition at 10 µM on human amylin (hIAPP) [2] was more than 50%. In addition, the inhibition at 10 µM on human amylin (hIAPP) [3] came out at 30.3 ± 3.1%. Also, the IC50 at human amylin (hIAPP) [4] is 4.11 µM.

For `CC(C)(C)c1cccc(CNCC(O)CCN2CCN(C(c3ccccc3)c3ccccc3)CC2)c1` (centres unmarked) [Compound 13], the “inhibition of Aβ aggregation in the ThT assay” value in the series with Aβ was 81.4% and ~82%. Also, on human amylin (hIAPP) [1], the “t 0 (time point when the aggregation starts)” value came out at 12.49 ± 0.19 h, the “t 1/2 (aggregation halftime)” value was determined as 20.41 ± 0.20 h, the “t 1 (aggregation endpoint)” value was 28.41 ± 0.23 h and the k was found to be 0.2729 ± 0.0025 h^–1. For the same compound, on human amylin (hIAPP) [1], the “k e (elongation constant)” value is recorded as 18195 ± 165 M^–1h^–1, the “k n (nucleation constant)” value stood at 0.0011 ± 0.0001 h^–1 and the “ρ (ratio of kn to k)” value is on record as 0.0038 ± 0.0002. Moreover, at human amylin (hIAPP) [2] (compound 10 μM, amylin 15 μM, 36 h incubation, 3 trials), the “ThT inhibition % (mean ± SEM)” value stood at 74.7 ± 0.7%. Also, the inhibition at 10 µM on human amylin (hIAPP) [2] was approximately 75%. Further, the inhibition at 10 µM at human amylin (hIAPP) [3] is 86.7 ± 4.5%. For the same compound, the IC50 at human amylin (hIAPP) [4] was 3.75 µM.

The values are drawn from paper PMC12612973, “Inhibition of Human Amylin Aggregation: In Silico and In Vitro Studies” (ACS Omega, 2025).
